This note sets out measurements from patent US7981936B2, “Crystalline ACAT inhibitor” (Graceway Pharmaceuticals, LLC, priority 2005, dated 2011).

Turning to `CC(C)c1cccc(C(C)C)c1NC(=O)CC(=O)N(Cc1ccccc1)C(C)C` [Form A polymorph, N-benzyl-N′-(2,6-diisopropyl-phenyl)-N-isopropyl-malonamide], the melting point (as a rule, the temperature of the solid-liquid transition) turned out to be 102.3 °C.
